Results published in patent US11370776B2, “Sulfonylureas and sulfonylthioureas as NLRP3 inhibitors” (Inflazome Limited, priority 2017, dated 2022).
Where a name gives a salt, the structure may show the parent alone.

Assays:
NLRP3 [1] = target: T1, NLRP3 (Homo sapiens, UniProt Q96P20); experiment: Human whole blood IL1β release assay; format: cell-based; set-up: Human whole blood in Li-heparin tubes was obtained from healthy donors; from tissue; host or cells: human whole blood from healthy donors, LPS-primed, nigericin-stimulated
T1 sequence (Q96P20 whole entry): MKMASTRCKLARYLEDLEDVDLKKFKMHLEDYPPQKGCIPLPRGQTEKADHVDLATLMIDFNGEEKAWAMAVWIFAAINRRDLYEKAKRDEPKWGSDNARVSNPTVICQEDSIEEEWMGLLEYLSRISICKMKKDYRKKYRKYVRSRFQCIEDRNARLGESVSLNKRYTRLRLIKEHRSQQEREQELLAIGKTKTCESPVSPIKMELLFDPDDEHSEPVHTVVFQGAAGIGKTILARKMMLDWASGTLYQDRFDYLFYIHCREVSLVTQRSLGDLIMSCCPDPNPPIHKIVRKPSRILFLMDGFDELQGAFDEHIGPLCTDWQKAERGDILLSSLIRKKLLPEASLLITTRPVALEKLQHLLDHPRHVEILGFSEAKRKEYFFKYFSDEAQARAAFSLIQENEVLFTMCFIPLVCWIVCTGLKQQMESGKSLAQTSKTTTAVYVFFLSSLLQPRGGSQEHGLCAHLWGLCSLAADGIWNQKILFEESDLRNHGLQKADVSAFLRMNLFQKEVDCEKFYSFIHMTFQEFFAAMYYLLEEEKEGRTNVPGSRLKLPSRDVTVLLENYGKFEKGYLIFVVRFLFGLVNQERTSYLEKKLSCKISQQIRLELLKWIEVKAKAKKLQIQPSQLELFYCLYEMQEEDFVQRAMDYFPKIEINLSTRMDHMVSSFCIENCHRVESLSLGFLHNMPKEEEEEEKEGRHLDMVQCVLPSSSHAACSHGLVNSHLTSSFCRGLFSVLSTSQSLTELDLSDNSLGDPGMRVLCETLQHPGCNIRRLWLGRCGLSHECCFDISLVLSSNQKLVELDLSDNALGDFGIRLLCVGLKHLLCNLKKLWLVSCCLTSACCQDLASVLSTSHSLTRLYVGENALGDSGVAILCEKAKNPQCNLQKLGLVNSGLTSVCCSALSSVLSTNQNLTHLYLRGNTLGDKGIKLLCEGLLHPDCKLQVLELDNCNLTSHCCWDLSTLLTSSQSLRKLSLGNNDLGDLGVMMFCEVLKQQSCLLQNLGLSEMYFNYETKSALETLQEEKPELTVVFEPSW
Experimental: Human Whole Blood IL1β Release Assay
For systemic delivery, the ability to inhibit NLRP3 when the compounds are present within the bloodstream is of great importance. For this reason, the NLRP3 inhibitory activity of a number of compounds in human whole blood was investigated in accordance with the following protocol.
Human whole blood in Li-heparin tubes was obtained from healthy donors from a volunteer donor panel. • 1. […] Incubate for 3 hrs at 37° C., 5% CO2 • 4. Add 10 μl Nigericin (Sigma # N7143) (10 μM FAC) to all wells • 5. Incubate for 1 hr at 37° C., 5% CO2 • 6. At the end of the incubation period, spin plates at 300×g for 5 mins to pellet cells and remove 20 μl of supernatant and add to 96-well v-bottom plates for IL-1β analysis (note: these plates containing the supernatants can be stored at −80° C. to be analysed at a later date) • 7. IL-1β was measured according to the manufacturer protocol (Perkin Elmer-AlphaLisa IL-1 Kit AL220E-5000) • 8. IC50 data is fitted to a non-linear regression equation (log inhibitor vs response-variable slope 4-parameters)

NLRP3 [2] = target: T1, NLRP3; experiment: THP-1 cells pyroptosis assay; format: cell-based; set-up: Seed THP-1 cells (25,000 cells/well) containing 1.0 μg/ml LPS; host or cells: THP-1 cells, LPS-primed, nigericin-stimulated; details: for IC50: 1.0 μg/ml LPS, nigericin 5 μM, pyroptosis read with resazurin; for NLRP3 inhibitory activity (in words): THP-1 pyroptosis assay
Experimental: The cells were routinely passaged and grown to confluency (˜10^6 cells/ml). On the day of the experiment, THP-1 cells were harvested and resuspended into RPMI medium (without FBS). The cells were then counted and viability (>90%) checked by Trypan blue (Sigma # T8154). […] To this diluted cell solution was added LPS (Sigma # L4524) to give a 1 μg/ml Final Assay Concentration (FAC). 40 μl of the final preparation was aliquoted into each well of a 96-well plate. The plate thus prepared was used for compound screening. THP-1 Cells Pyroptosis Assay The following method step-by-step assay was followed for compound screening. • 1. […] Add 5 μl nigericin (Sigma # N7143) (FAC 5 μM) to all wells • 5. […] At the end of the incubation period, spin plates at 300×g for 3 mins and remove supernatant • 7. Then add 50 μl of resazurin (Sigma # R7017) (FAC 100 μM resazurin in RPMI medium without FBS) and incubate plates for a further 1-2 hrs at 37° C. and 5% CO2 • 8. […] IC50 data is fitted to a non-linear regression equation (log inhibitor vs response-variable slope 4-parameters) [table]

[3] = human whole blood, 1 μg/ml LPS, nigericin 10 μM, IL-1β release, read-out: HWB IC50
[4] = THP-1 cells, read-out: THP IC50

Row | SMILES | IC50 (NLRP3 [1]; [3]) | IC50 (NLRP3 [2]; [4]) | NLRP3 inhibitory activity (in words) (NLRP3 [2]) | IC50 (NLRP3 [1]) | IC50 (NLRP3 [2]; THP IC50, THP-1 cells)
1 | CC(C)c1cccc(C(C)C)c1NC(=O)NS(=O)(=O)c1cccnn1 [Example 7, N-((2,6-Diisopropylphenyl)carbamoyl)pyridazine-3-sulfonamide, Sodium Salt] | < 2500 nM | < 10000 nM |  |  | 
2 | COc1nccnc1S(=O)(=O)NC(=O)Nc1c2c(cc3c1CCC3)CCC2 [Example 8, N-((1,2,3,5,6,7-Hexahydro-s-indacen-4-yl)carbamoyl)-3-methoxypyrazine-2-sulfonamide, Potassium Salt] | < 5000 nM | < 800 nM |  |  | 
3 | Nc1ncc(S(=O)(=O)NC(=O)Nc2c3c(cc4c2CCC4)CCC3)cn1 [Example 9, 2-Amino-N-((1,2,3,5,6,7-hexahydro-s-indacen-4-yl)carbamoyl) pyrimidine-5-sulfonamide, Potassium Salt] | < 2500 nM | < 2000 nM |  |  | 
4 | O=C(Nc1c2c(cc3c1CCC3)CCC2)NS(=O)(=O)c1cncnc1 [Example 10, N-((1,2,3,5,6,7-Hexahydro-s-indacen-4-yl)carbamoyl) pyrimidine-5-sulfonamide, Potassium Salt] | < 7500 nM | < 10000 nM |  |  | 
5 | Cc1ccnc(S(=O)(=O)NC(=O)Nc2c3c(cc4c2CCC4)CCC3)n1 [Example 17, N-((1,2,3,5,6,7-Hexahydro-s-indacen-4-yl)carbamoyl)-4-methyl pyrimidine-2-sulfonamide, Potassium Salt] | < 5000 nM | < 1200 nM |  |  | 
6 | Cc1cc(C)nc(S(=O)(=O)NC(=O)Nc2c3c(cc4c2CCC4)CCC3)n1 [Example 18, N-((1,2,3,5,6,7-Hexahydro-s-indacen-4-yl)carbamoyl)-4,6-dimethyl pyrimidine-2-sulfonamide, Potassium Salt] | < 2500 nM | < 800 nM | highly active |  | 
7 | CN(C)c1cncc(S(=O)(=O)NC(=O)Nc2c3c(cc4c2CCC4)CCC3)n1 [Example 27, 6-(Dimethylamino)-N-((1,2,3,5,6,7-hexahydro-s-indacen-4-yl)carbamoyl)pyrazine-2-sulfonamide, Potassium Salt] | < 7500 nM | < 800 nM |  |  | 
8 | CN(C)c1cncc(S(=O)(=O)NC(=O)Nc2c(-c3ccncc3)cc(F)c3c2CCC3)n1 [Example 37, 6-(Dimethylamino)-N-((7-fluoro-5-(pyridin-4-yl)-2,3-dihydro-1H-inden-4-yl)carbamoyl)pyrazine-2-sulfonamide] | < 2500 nM | < 800 nM |  |  | 
9 | CC(C)c1cc(F)cc(-c2ccnc(C#N)c2)c1NC(=O)NS(=O)(=O)c1cnc(N(C)C)cn1 [Example 38, N-((2-(2-Cyanopyridin-4-yl)-4-fluoro-6-isopropylphenyl)carbamoyl)-5-(dimethylamino)pyrazine-2-sulfonamide] | < 2500 nM | < 800 nM |  |  | 
10 | COc1cc(-c2ccc3c(c2NC(=O)NS(=O)(=O)c2cnc(N(C)C)cn2)CCC3)ccn1 [Example 40, 5-(Dimethylamino)-N-((5-(2-methoxypyridin-4-yl)-2,3-dihydro-1H-inden-4-yl)carbamoyl)pyrazine-2-sulfonamide] | < 2500 nM | < 800 nM |  |  | 
11 | Cc1cc(C)nc(S(=O)(=O)NC(=O)Nc2c(-c3ccnc(C#N)c3)cc(F)cc2C(C)C)n1 [Example 46, N-((2-(2-Cyanopyridin-4-yl)-4-fluoro-6-isopropylphenyl)carbamoyl)-4,6-dimethylpyrimidine-2-sulfonamide] | < 2500 nM | < 800 nM | highly active |  | 
12 | COc1cc(-c2cc(F)cc(C(C)C)c2NC(=O)NS(=O)(=O)c2nc(C)cc(C)n2)ccn1 [Example 47, N-((4-Fluoro-2-isopropyl-6-(2-methoxypyridin-4-yl)phenyl)carbamoyl)-4,6-dimethylpyrimidine-2-sulfonamide] |  | < 800 nM | highly active |  | 
13 | COc1cc(-c2ccc3c(c2NC(=O)NS(=O)(=O)c2nc(C)cc(C)n2)CCC3)ccn1 [Example 48, N-((5-(2-Methoxypyridin-4-yl)-2,3-dihydro-1H-inden-4-yl)carbamoyl)-4,6-dimethylpyrimidine-2-sulfonamide] | < 2500 nM | < 800 nM | highly active |  | 
14 | Cc1cc(C)nc(S(=O)(=O)NC(=O)Nc2c(-c3ccncc3)cc(F)c3c2CCC3)n1 [Example 49, N-((7-Fluoro-5-(pyridin-4-yl)-2,3-dihydro-1H-inden-4-yl)carbamoyl)-4,6-dimethylpyrimidine-2-sulfonamide] | < 2500 nM | < 800 nM | highly active |  | 
15 | CC(C)c1cc(F)cc(-c2ccnc(C#N)c2)c1NC(=O)NS(=O)(=O)c1cc(N(C)C)cnn1 [Example 50, N-((2-(2-Cyanopyridin-4-yl)-4-fluoro-6-isopropylphenyl)carbamoyl)-5-(dimethylamino) pyridazine-3-sulfonamide] | < 2500 nM | < 800 nM |  |  | 
16 | COc1cc(-c2cc(F)cc(C(C)C)c2NC(=O)NS(=O)(=O)c2cc(N(C)C)cnn2)ccn1 [Example 51, 5-(Dimethylamino)-N-((4-fluoro-2-isopropyl-6-(2-methoxypyridin-4-yl)phenyl)carbamoyl) pyridazine-3-sulfonamide] |  |  |  | < 2500 nM | < 800 nM
17 | COc1cc(-c2ccc3c(c2NC(=O)NS(=O)(=O)c2cc(N(C)C)cnn2)CCC3)ccn1 [Example 52, 5-(Dimethylamino)-N-((5-(2-methoxypyridin-4-yl)-2,3-dihydro-1H-inden-4-yl)carbamoyl) pyridazine-3-sulfonamide] | < 2500 nM | < 800 nM |  |  | 
18 | CN(C)c1cnnc(S(=O)(=O)NC(=O)Nc2c(-c3ccncc3)cc(F)c3c2CCC3)c1 [Example 53, 5-(Dimethylamino)-N-((7-fluoro-5-(pyridin-4-yl)-2,3-dihydro-1H-inden-4-yl)carbamoyl) pyridazine-3-sulfonamide] | < 2500 nM | < 800 nM |  |  | 
19 | CN1CCN(c2cncc(S(=O)(=O)NC(=O)Nc3c4c(cc5c3CCC5)CCC4)n2)CC1 [Example 54, N-((1,2,3,5,6,7-Hexahydro-s-indacen-4-yl)carbamoyl)-6-(4-methylpiperazin-1-yl)pyrazine-2-sulfonamide, Potassium Salt] |  | < 2000 nM |  |  | 
20 | Cc1cc(N(C)C)nc(S(=O)(=O)NC(=O)Nc2c3c(cc4c2CCC4)CCC3)n1 [Example 56, 4-(Dimethylamino)-N-((1,2,3,5,6,7-hexahydro-s-indacen-4-yl)carbamoyl)-6-methylpyrimidine-2-sulfonamide, potassium salt] |  | < 800 nM | highly active |  | 
21 | CC(C)c1cc(S(=O)(=O)NC(=O)Nc2c3c(cc4c2CCC4)CCC3)ccn1 [Example 57, N-((1,2,3,5,6,7-Hexahydro-s-indacen-4-yl)carbamoyl)-2-isopropylpyridine-4-sulfonamide, Sodium Salt] |  | < 800 nM |  |  | 
22 | COc1cc(-c2ccc3c(c2NC(=O)NS(=O)(=O)c2ccc(CN(C)C)nc2)CCC3)ccn1 [Example 58, 6-((Dimethylamino)methyl)-N-((5-(2-methoxypyridin-4-yl)-2,3-dihydro-1H-inden-4-yl)carbamoyl)pyridine-3-sulfonamide] | < 2500 nM | < 800 nM |  |  | 
23 | COc1cc(-c2ccc3c(c2NC(=O)NS(=O)(=O)c2ccnc(CN(C)C)c2)CCC3)ccn1 [Example 59, 2-((Dimethylamino)methyl)-N-((5-(2-methoxypyridin-4-yl)-2,3-dihydro-1H-inden-4-yl)carbamoyl)pyridine-4-sulfonamide, sodium salt] | < 2500 nM | < 800 nM |  |  | 
24 | COc1cc(-c2ccc3c(c2NC(=O)NS(=O)(=O)c2ccnc(C(C)C)c2)CCC3)ccn1 [Example 60, 2-Isopropyl-N-((5-(2-methoxypyridin-4-yl)-2,3-dihydro-1H-inden-4-yl)carbamoyl)pyridine-4-sulfonamide, sodium salt] | < 2500 nM | < 800 nM |  |  | 
